ChEMBL document CHEMBL1201862, “PubChem BioAssay data set” (2004)
Where a name gives a salt, the structure may show the parent alone. Calls of active or inactive are those of the source.

Key:
[1] = biological target: 5-hydroxytryptamine receptor 2A (Mus musculus, UniProt P35363); assay type: functional, cell-based;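 note: CHO-K1 cells with tagged receptor and beta-arrestin; agonist potency measured as compound-induced activation of the receptor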
[2] = biological target: Mu-type opioid receptor (Homo sapiens, UniProt P35372); assay type: functional, cell-based;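 note: U2OS cells with beta-arrestin recruitment to OPRM1 by beta-gal complementation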
Sequence of Mu-type opioid receptor (P35372 whole entry): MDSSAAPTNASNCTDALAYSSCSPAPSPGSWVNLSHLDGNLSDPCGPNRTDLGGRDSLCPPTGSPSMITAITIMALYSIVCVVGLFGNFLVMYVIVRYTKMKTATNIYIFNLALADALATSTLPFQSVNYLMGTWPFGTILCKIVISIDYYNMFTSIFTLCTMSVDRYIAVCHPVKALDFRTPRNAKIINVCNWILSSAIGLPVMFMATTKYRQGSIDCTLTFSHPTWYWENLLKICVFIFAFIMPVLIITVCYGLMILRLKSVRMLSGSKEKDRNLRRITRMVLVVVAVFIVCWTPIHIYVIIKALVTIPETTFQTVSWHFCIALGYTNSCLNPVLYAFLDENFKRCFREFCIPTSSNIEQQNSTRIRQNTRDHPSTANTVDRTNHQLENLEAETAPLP

[3] = system: Vero; assay: Vero cell toxicity, dose response, cytotoxicity control, plate reader, cherry-pick samples (AID 687020); assay type: functional, cell-based; settings: Chlorocebus sabaeus
[4] = miR-122 activators in hepatoma reporter cells, dose response, cell-based, Huh7 psiCHECK-miR122, Renilla luciferase, cherry-picked (AID 651956); assay type: functional;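 note: huh7 hepatoma cells stably carrying a psiCHECK-2 miR-122 sensor plasmid; renilla luciferase signal reporting endogenous miR-122 activity after 48 h compound exposure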
[5] = control 3'UTR Renilla luciferase suppression, dose response, counter-screen for Shn3 inhibitor project, cell-based, Clone20-Shn3RL, cherry-picked (AID 624133); assay type: functional
[6] = Shn3 3'UTR reporter inhibitors, dose response, cell-based, Clone20 osteoblasts, firefly luciferase, cherry-picked (AID 624132); assay type: functional;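 note: firefly luciferase luminescence from reporter carrying the Shn3 3'UTR in osteoblasts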
[7] = cytotoxicity in HEK-293T cells, dose response, cytotoxicity control for TCR NF-kB inhibitor project, luminescence, T-cell screen hits (AID 489026); assay type: functional, cell-based;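 note: cells exposed to compound about 14 hours before the viability readout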
[8] = biological target: T1, DNA repair and recombination protein RAD54-like (Homo sapiens, UniProt Q92698); assay: inhibitors of human RAD54 branch migration, confirmation, biochemical, fluorescence, cherry-picked samples, dose series (AID 651657); assay type: functional
T1 sequence (Q92698 whole entry): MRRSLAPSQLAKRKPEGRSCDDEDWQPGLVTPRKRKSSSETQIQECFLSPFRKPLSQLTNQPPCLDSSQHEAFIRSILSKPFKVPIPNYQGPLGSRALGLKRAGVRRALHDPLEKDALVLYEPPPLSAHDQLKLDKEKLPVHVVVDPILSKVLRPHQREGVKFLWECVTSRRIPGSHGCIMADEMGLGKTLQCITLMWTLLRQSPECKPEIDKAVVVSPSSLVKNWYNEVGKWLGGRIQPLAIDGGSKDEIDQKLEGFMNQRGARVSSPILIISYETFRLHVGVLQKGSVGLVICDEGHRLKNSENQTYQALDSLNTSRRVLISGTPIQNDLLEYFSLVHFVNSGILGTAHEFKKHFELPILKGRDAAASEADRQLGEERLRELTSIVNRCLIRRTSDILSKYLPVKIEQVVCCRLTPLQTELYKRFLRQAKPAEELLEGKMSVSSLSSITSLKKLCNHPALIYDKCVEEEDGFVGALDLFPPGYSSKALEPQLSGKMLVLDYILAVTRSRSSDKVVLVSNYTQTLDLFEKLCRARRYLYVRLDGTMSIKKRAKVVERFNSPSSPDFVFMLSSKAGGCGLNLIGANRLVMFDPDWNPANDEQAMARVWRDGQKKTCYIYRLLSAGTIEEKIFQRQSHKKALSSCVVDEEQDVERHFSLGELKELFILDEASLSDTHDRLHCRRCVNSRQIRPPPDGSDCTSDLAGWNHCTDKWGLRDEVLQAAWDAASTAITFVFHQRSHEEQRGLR

[9] = biological target: FAD-linked sulfhydryl oxidase ALR (Homo sapiens, UniProt P55789); assay: inhibitors of human ALR sulfhydryl oxidase, dose response, biochemical, H2O2 detection, luminescence, cherry-pick (AID 493248)
Sequence of FAD-linked sulfhydryl oxidase ALR (P55789 whole entry): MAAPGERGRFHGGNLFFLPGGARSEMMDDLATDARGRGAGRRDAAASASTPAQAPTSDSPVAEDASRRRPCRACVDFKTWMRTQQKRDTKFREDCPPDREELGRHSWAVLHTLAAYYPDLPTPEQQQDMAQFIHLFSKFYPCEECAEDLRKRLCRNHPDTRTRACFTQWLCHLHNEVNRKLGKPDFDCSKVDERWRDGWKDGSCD

[10] = MDA-MB-231 cell growth inhibition, dose response, cytotoxicity control for RAD54 inhibitor project, CellTiter-Glo luminescence, cherry-pick (AID 651692); assay type: functional, cell-based
[11] = biological target: T2, DNA repair protein RAD52 homolog (Homo sapiens, UniProt P43351); assay type: functional, biochemical
T2 sequence (P43351 whole entry): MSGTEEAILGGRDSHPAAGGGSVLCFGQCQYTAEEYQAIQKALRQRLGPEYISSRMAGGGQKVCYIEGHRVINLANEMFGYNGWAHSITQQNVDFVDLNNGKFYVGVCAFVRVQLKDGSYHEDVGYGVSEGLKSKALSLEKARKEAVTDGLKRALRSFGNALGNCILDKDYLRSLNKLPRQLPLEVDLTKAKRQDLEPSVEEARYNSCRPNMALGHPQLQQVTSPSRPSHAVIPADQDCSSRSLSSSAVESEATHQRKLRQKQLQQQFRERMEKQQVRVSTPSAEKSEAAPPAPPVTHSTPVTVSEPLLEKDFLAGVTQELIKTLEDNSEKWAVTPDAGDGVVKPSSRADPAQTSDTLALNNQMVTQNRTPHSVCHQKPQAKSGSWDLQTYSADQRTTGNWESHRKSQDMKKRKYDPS

[12] = DNA binding of candidate compounds, dose response, artefact control for RAD54 inhibitor project, biochemical, fluorescence polarization, cherry-pick (AID 651673); assay type: functional
[13] = HepG2 cell cytotoxicity, dose response, cytotoxicity control for Shn3 inhibitor project, CellTiter-Glo, cherry-picked (AID 624134); assay type: functional, cell-based
[14] = Luminescence Cell-Based Dose Retest to Confirm Inhibitors of Cancer Stem Cells. [Related pubchem assays (depositor defined):AID2717, AID2721]; assay type: functional; settings: Homo sapiens

Sequence of 5-hydroxytryptamine receptor 2A (P35363 whole entry): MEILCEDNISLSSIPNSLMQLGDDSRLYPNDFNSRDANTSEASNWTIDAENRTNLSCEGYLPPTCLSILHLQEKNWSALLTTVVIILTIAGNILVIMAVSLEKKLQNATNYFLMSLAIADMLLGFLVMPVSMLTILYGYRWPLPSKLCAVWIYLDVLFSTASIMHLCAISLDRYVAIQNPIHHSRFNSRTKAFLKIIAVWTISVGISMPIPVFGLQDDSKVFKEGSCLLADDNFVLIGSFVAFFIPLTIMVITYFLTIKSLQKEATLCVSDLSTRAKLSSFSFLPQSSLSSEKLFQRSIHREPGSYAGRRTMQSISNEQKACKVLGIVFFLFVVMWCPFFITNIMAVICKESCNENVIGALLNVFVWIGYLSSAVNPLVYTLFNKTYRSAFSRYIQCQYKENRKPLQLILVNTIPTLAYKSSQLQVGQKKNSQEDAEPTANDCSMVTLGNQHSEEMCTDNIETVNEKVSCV

Which EC50 [1] does the source give for `Cc1ccc(C(=O)N/C(=C/c2ccccc2)C(=O)NC(Cc2ccccc2)C(=O)O)cc1` (centres undefined) here?
Its EC50 is 76.1 µM (inactive).

What about the EC50 [2] of the same compound?
Its EC50 is 92.5 µM (inactive).

For `Cc1cc(F)ccc1C(O)c1nc(-c2ccccc2C(F)(F)F)c[nH]1` (centres undefined), which AC50 [3] is on record?
Its AC50 is 33.5 µM (active).

Which AC50 [4] does the source give for `CNC(=O)C[C@H]1CC[C@@H]2[C@@H](COc3ccc(NC(=O)Nc4ccc(Cl)cc4)cc3C(=O)N2C)O1` here?
Its AC50 is 29 µM (active).

Which AC50 [5] does the source give for `COc1cc(NS(C)(=O)=O)ccc1Nc1c2ccccc2nc2ccccc12` [AMSACRINE HYDROCHLORIDE] here?
The AC50 was 7.09 µM (active).

What about the AC50 [6] of the same compound?
The AC50 was 1.32 µM (active).

And the IC50 [7]?
The IC50 was > 80 µM (inactive).

And the AC50 [8]?
The AC50 was 11.6 µM (active).

And the AC50 [9]?
Its AC50 is 16 µM (active).

And the AC50 [10]?
Its AC50 is 23.3 µM (active).

What about the AC50 [11] of the same compound?
The AC50 was 6.83 µM (active).

And the AC50 [12]?
Its AC50 is 39.4 µM (active).

What about the AC50 [13] of the same compound?
The AC50 was 18.9 µM (active).

And the AC50 [14]?
Its AC50 is 0.91 µM (active).
